Data from ChEMBL document CHEMBL1123973, “Renin inhibitors containing hydrophilic groups. Tetrapeptides with enhanced aqueous solubility and nanomolar potency” (J Med Chem, 1988).
Values after ≈ are worked out from the molar mass of the structure shown. *1 amine or outer side, *2 acyl side, *3 side chain or, on linkers, in order; H or OH if unused. Where a SMILES comes first, the peptide text is derived from it. [ ]: non-standard residue; d: D form. The star is where a group is joined. ξ: configuration not given here. Sta = CC(C)C[C@H](N)[C@@H](O)CC(=O)O; X1 = CC(C)CC(N[*:1])C(O)CC(=O)[*:2]; ξPhg = NC(C(=O)O)c1ccccc1; Boc = CC(C)(C)OC(=O)*; NHBn = c1ccc(CN*)cc1

How the values were obtained:
physchem [1] = conditions: S
physchem [2] = conditions: phosphate buffer, pH 7.4, S
Description: Solubility (phosphate buffer, pH 7.4)

[3] = Partition coefficient (logD) (octanol/citric acid-phosphate buffer)
Renin = target: T1, Renin (Homo sapiens, UniProt P00797); experiment: Concentration required for 50% inhibition of human plasma renin; type: cell-free
T1 sequence (P00797 whole entry): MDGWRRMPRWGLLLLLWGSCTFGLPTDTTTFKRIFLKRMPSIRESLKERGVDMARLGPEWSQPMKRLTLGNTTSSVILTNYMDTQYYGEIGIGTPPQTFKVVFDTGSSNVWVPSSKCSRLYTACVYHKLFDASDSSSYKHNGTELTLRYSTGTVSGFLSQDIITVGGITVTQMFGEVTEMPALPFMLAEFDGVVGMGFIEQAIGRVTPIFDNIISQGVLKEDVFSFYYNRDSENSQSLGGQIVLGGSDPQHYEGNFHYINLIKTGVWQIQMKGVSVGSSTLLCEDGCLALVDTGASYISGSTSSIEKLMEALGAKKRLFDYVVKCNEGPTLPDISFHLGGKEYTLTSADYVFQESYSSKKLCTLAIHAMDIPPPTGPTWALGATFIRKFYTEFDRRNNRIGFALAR

[4] = buffer, pH 7.4
Description: Solubility (phosphate buffer, pH 7.4)

Renin (Sus scrofa) = experiment: Inhibition of porcine kidney renin
[5] = target: Renin (Canis lupus familiaris); experiment: Inhibition of renin
Renin (Homo sapiens) = target: T2, Renin (Homo sapiens) (UniProt P00797); experiment: Concentration required for 50% inhibition of human plasma renin at 10e-6 nM of the compound; type: cell-free
T2 sequence (whole entry): T1 sequence (P00797 whole entry)

[6] = system: Renin (Canis lupus familiaris); experiment: Concentration required for 50% inhibition of renin; 10e-6 (nM)
Sus scrofa [7] = species on record: Sus scrofa; experiment: Concentration required for 50% inhibition of porcine kidney renin at 10e-6 (nM) concentration
Sus scrofa [8] = species on record: Sus scrofa; experiment: Concentration required for 50% inhibition of porcine kidney renin at 10e-7 nM of the compound
[9] = system: Renin (Canis lupus familiaris); experiment: Concentration required for 50% inhibition of renin at 10e-6 M of the compound
Sus scrofa [10] = species on record: Sus scrofa; experiment: Concentration required for 50% inhibition of porcine kidney renin at 10e-7 nM concentration
[11] = system: Renin (Canis lupus familiaris); experiment: Concentration required for 50% inhibition of renin at 10e-6 nM concentration
Sus scrofa [12] = species on record: Sus scrofa; experiment: Concentration required for 50% inhibition of porcine kidney renin at 10e-7 (nM) concentration
Sus scrofa [13] = species on record: Sus scrofa; experiment: Concentration required for 50% inhibition of porcine kidney renin; type: functional

solubility (physchem [1])	solubility (physchem [2])	logD [3]	Structure (SMILES)	also measured
440 µM (≈ 336 µg/mL)	340 µM (≈ 259 µg/mL)	> 2	CC(C)CC(NC(=O)[C@H](Cc1c[nH]cn1)NC(=O)[C@H](Cc1ccccc1)NC(=O)OC(C)(C)C)C(O)CC(=O)N[C@@H](CC(C)C)C(=O)NCc1ccncc1 (some centres not stated)	–
890 µM (≈ 705 µg/mL)	400 µM (≈ 317 µg/mL)	> 2	CC(C)CC(NC(=O)[C@H](Cc1c[nH]cn1)NC(=O)[C@H](Cc1ccccc1)NC(=O)OC(C)(C)C)C(O)CC(=O)N[C@@H](CC(C)C)C(=O)NCC(N)c1ccccn1 (some centres not stated)	–
270 µM (≈ 226 µg/mL)	1800 µM (≈ 1500 µg/mL)	> 2	CC(C)CC(NC(=O)[C@H](Cc1cnc[nH]1)NC(=O)[C@H](Cc1ccccc1)NC(=O)OC(C)(C)C)C(O)CC(=O)N[C@@H](CC(C)C)C(=O)NCc1cccc(OCC(=O)O)c1 (some centres not stated)	–
2600 µM (≈ 1860 µg/mL)	4900 µM (≈ 3500 µg/mL)	0.949	CC(C)CC(NC(=O)[C@H](Cc1cnc[nH]1)NC(=O)[C@H](Cc1ccccc1)NC(=O)OC(C)(C)C)C(O)CC(=O)N[C@@H](CC(C)C)C(=O)NCCN (some centres not stated)	IC50 (Renin): 140 nM
> 250 µM	40 µM (≈ 34.9 µg/mL)	> 2	CC(C)C[C@H](NC(=O)CC(O)C(CC1CCCCC1)NC(=O)[C@H](Cc1c[nH]cn1)NC(=O)[C@H](Cc1ccccc1)NC(=O)OC(C)(C)C)C(=O)NCc1cccc(CN=C(N)N)c1 (some centres not stated)	–
–	< 10 µM	> 2	CC(C)C[C@H](NC(=O)CC(O)C(CC1CCCCC1)NC(=O)[C@H](Cc1cnc[nH]1)NC(=O)[C@H](Cc1ccccc1)NC(=O)OC(C)(C)C)C(=O)NCc1ccncc1 (some centres not stated)	–
3400 µM (≈ 2630 µg/mL)	–	1.03	CC(C)CC(NC(=O)[C@H](Cc1c[nH]cn1)NC(=O)[C@H](Cc1ccccc1)NC(=O)OC(C)(C)C)C(O)CC(=O)N[C@@H](CC(C)C)C(=O)NCCC(N)C(=O)O (stereo in doubt; 17) [listing 1 of 2 here]	S [4]: 1400 µM
880 µM (≈ 696 µg/mL)	1400 µM (≈ 1110 µg/mL)	1.89	CC(C)CC(NC(=O)[C@H](Cc1cnc[nH]1)NC(=O)[C@H](Cc1ccccc1)NC(=O)OC(C)(C)C)C(O)CC(=O)N[C@@H](CC(C)C)C(=O)NCc1cccc(CN)c1 (some centres not stated)	IC50 (Renin): 9 nM; IC50 (Renin (Sus scrofa)): 54 nM; IC50 [5]: 110 nM
–	–	–	CC(C)CC(NC(=O)[C@H](Cc1c[nH]cn1)NC(=O)[C@H](Cc1ccccc1)NC(=O)OC(C)(C)C)C(O)CC(=O)N[C@@H](CC(C)C)C(=O)NCCC(N)C(=O)O (stereo in doubt; 17) [listing 2 of 2 here]	inhibition (Renin (Homo sapiens)): 8%; inhibition [6]: 22%; inhibition (Sus scrofa [7]): 0%
< 20 µM	< 20 µM	> 2	CC(C)C[C@H](NC(=O)C[C@H](O)[C@H](CC(C)C)NC(=O)[C@H](Cc1c[nH]cn1)NC(=O)[C@H](Cc1ccccc1)NC(=O)OC(C)(C)C)C(=O)N[C@@H](Cc1ccccc1)C(N)=O (Boc-FH[Sta]LF-NH2)	–
3000 µM (≈ 2500 µg/mL)	930 µM (≈ 775 µg/mL)	1.03	CC(C)CC(NC(=O)[C@H](Cc1cnc[nH]1)NC(=O)[C@H](Cc1ccccc1)NC(=O)OC(C)(C)C)C(O)CC(=O)N[C@@H](CC(C)C)C(=O)NCc1cccc(CN=C(N)N)c1 (some centres not stated)	–
–	–	–	CC(C)CC(NC(=O)[C@H](Cc1c[nH]cn1)NC(=O)[C@H](Cc1ccccc1)NC(=O)OC(C)(C)C)C(O)CC(=O)N[C@@H](CC(C)C)C(=O)NCCC(N)C(=O)O (stereo in doubt; 16)	inhibition (Sus scrofa [8]): 0%; inhibition (Renin (Homo sapiens)): 25%; inhibition [9]: 15%
< 10 µM	< 10 µM	> 2	CC(C)CC(NC(=O)[C@H](Cc1c[nH]cn1)NC(=O)[C@H](Cc1ccccc1)NC(=O)OC(C)(C)C)C(O)CC(=O)N[C@@H](CC(C)C)C(=O)N1CCN(Cc2ccccc2)CC1 (some centres not stated)	IC50 (Renin): 127 nM; IC50 (Renin (Sus scrofa)): 280 nM; IC50 [5]: 310 nM
6500 µM (≈ 5060 µg/mL)	4200 µM (≈ 3270 µg/mL)	–	CC(C)CC(NC(=O)[C@H](Cc1cnc[nH]1)NC(=O)[C@H](Cc1ccccc1)NC(=O)OC(C)(C)C)C(O)CC(=O)N[C@@H](CC(C)C)C(=O)NCc1cc[n+]([O-])cc1 (some centres not stated)	–
740 µM (≈ 596 µg/mL)	2200 µM (≈ 1770 µg/mL)	1.22	CC(C)CC(NC(=O)[C@H](Cc1c[nH]cn1)NC(=O)[C@H](Cc1ccccc1)NC(=O)OC(C)(C)C)C(O)CC(=O)N[C@@H](CC(C)C)C(=O)NC(C(=O)O)c1ccccc1 (some centres not stated) (Boc-FH[X1]L[ξPhg]-OH)	inhibition (Sus scrofa [8]): 0%; inhibition (Renin (Homo sapiens)): 44%; inhibition [9]: 45%
30 µM (≈ 26.3 µg/mL)	210 µM (≈ 184 µg/mL)	> 2	CC(C)C[C@H](NC(=O)CC(O)C(CC1CCCCC1)NC(=O)[C@H](Cc1cnc[nH]1)NC(=O)[C@H](Cc1ccccc1)NC(=O)OC(C)(C)C)C(=O)NCc1cccc(OCC(=O)O)c1 (some centres not stated)	–
390 µM (≈ 331 µg/mL)	1500 µM (≈ 1270 µg/mL)	1.83	CC(C)CC(NC(=O)[C@H](Cc1c[nH]cn1)NC(=O)[C@H](Cc1ccccc1)NC(=O)OC(C)(C)C)C(O)CC(=O)N[C@@H](CC(C)C)C(=O)NC(Cc1cccc(CN)c1)C(=O)O (some centres not stated)	IC50 (Renin): 880 nM; inhibition (Sus scrofa [10]): 0%; inhibition [11]: 18%
–	–	–	CC(C)CC(NC(=O)[C@H](Cc1c[nH]cn1)NC(=O)[C@H](Cc1ccccc1)NC(=O)OC(C)(C)C)C(O)CC(=O)N[C@@H](CC(C)C)C(=O)NCc1cc[n+]([O-])cc1 (some centres not stated)	inhibition (Sus scrofa [12]): 29%
380 µM (≈ 290 µg/mL)	180 µM (≈ 137 µg/mL)	> 2	CC(C)CC(NC(=O)[C@H](Cc1c[nH]cn1)NC(=O)[C@H](Cc1ccccc1)NC(=O)OC(C)(C)C)C(O)CC(=O)N[C@@H](CC(C)C)C(=O)NCc1ccccn1 (some centres not stated)	–
–	–	–	CC(C)CC(NC(=O)[C@H](Cc1c[nH]cn1)NC(=O)[C@H](Cc1ccccc1)NC(=O)OC(C)(C)C)C(O)CC(=O)N[C@@H](CC(C)C)C(=O)NCCN (some centres not stated)	inhibition [6]: 32%; inhibition (Sus scrofa [7]): 31%
960 µM (≈ 784 µg/mL)	4300 µM (≈ 3510 µg/mL)	1.4	CC(C)CC(NC(=O)[C@H](Cc1cnc[nH]1)NC(=O)[C@H](Cc1ccccc1)NC(=O)OC(C)(C)C)C(O)CC(=O)N[C@@H](CC(C)C)C(=O)NCCCN(CCO)CCO (some centres not stated)	IC50 (Renin): 170 nM; IC50 (Sus scrofa [13]): 900 nM
24000 µM (≈ 18200 µg/mL)	11000 µM (≈ 8330 µg/mL)	0.322	CC(C)CC(NC(=O)[C@H](Cc1c[nH]cn1)NC(=O)[C@H](Cc1ccccc1)NC(=O)OC(C)(C)C)C(O)CC(=O)N[C@@H](CC(C)C)C(=O)NCCN=C(N)N (some centres not stated)	inhibition [9]: 32%; IC50 (Renin): 64 nM; IC50 (Renin (Sus scrofa)): 710 nM
< 10 µM	< 10 µM	> 2	CC(C)C[C@H](NC(=O)C[C@H](O)[C@H](CC(C)C)NC(=O)[C@H](Cc1c[nH]cn1)NC(=O)[C@H](Cc1ccccc1)NC(=O)OC(C)(C)C)C(=O)NCc1ccccc1 (Boc-FH[Sta]L-NHBn)	–
